Mutagenic call data for twelve molecules are collected here from PubChem BioAssay AID1259407 (Chemical Carcinogenesis Research Information System (CCRIS), 2018).

The test system of this data set is CCRIS mutagenicity, Ames/micronucleus/aberration tests. The experiment in a line: CCRIS mutagenicity studies.
Where [1] appears, read: Test System: AMES SALMONELLA TYPHIMURIUM, Strain/Indicator: TA98, Metabolic Activation: NONE, Method: STANDARD PLATE.
Setting [2] is: Test System: AMES SALMONELLA TYPHIMURIUM, Strain/Indicator: TA98, Metabolic Activation: RAT, LIVER, S-9, AROCLOR 1254, Method: STANDARD PLATE.
The mark [3] stands for this setting: Test System: AMES SALMONELLA TYPHIMURIUM, Strain/Indicator: TA100, Metabolic Activation: NONE, Method: STANDARD PLATE.
[4] abbreviates: Test System: AMES SALMONELLA TYPHIMURIUM, Strain/Indicator: TA100, Metabolic Activation: RAT, LIVER, S-9, AROCLOR 1254, Method: STANDARD PLATE.
[5] abbreviates: Test System: AMES SALMONELLA TYPHIMURIUM, Strain/Indicator: TA1535, Metabolic Activation: NONE, Method: STANDARD PLATE.
[6] abbreviates: Test System: AMES SALMONELLA TYPHIMURIUM, Strain/Indicator: TA1535, Metabolic Activation: RAT, LIVER, S-9, AROCLOR 1254, Method: STANDARD PLATE.
Setting [7] is: Test System: AMES SALMONELLA TYPHIMURIUM, Strain/Indicator: TA1537, Metabolic Activation: NONE, Method: STANDARD PLATE.
Setting [8] is: Test System: AMES SALMONELLA TYPHIMURIUM, Strain/Indicator: TA1537, Metabolic Activation: RAT, LIVER, S-9, AROCLOR 1254, Method: STANDARD PLATE.
Setting [9] is: Test System: AMES SALMONELLA TYPHIMURIUM, Strain/Indicator: TA98, Metabolic Activation: NONE, Method: PREINCUBATION
Setting [10] is: Test System: AMES SALMONELLA TYPHIMURIUM, Strain/Indicator: TA100, Metabolic Activation: NONE, Method: PREINCUBATION

Activity calls are given as the source filed them. How the calls were made is not given here.

With `ONc1ccccc1`, the mutagenic call runs as follows: (Test System: AMES SALMONELLA TYPHIMURIUM, Strain/Indicator: TA100, Metabolic Activation: RAT, LIVER, S-9, PCB, Method: PREINCUBATION) “active; positive”; (Test System: E. COLI, Strain/Indicator: WP2 UVRA, Metabolic Activation: NONE, Method: FLUCTUATION TEST) “inactive; negative”.
Consider `NCCCC[C@H](N[C@@H](CCc1ccccc1)C(=O)O)C(=O)N1CCC[C@H]1C(=O)O`, for which the mutagenic call was “inactive; negative” under setting [1]; “inactive; negative” under setting [2]; “inactive; negative” under setting [3]; “inactive; negative” under setting [4]; “inactive; negative” under setting [5]; “inactive; negative” under setting [6]. Also, the mutagenic call is “inactive; negative” under setting [7]; “inactive; negative” under setting [8]; “inactive; negative” (Test System: AMES SALMONELLA TYPHIMURIUM, Strain/Indicator: TA1538, Metabolic Activation: NONE, Method: STANDARD PLATE); “inactive; negative” (Test System: AMES SALMONELLA TYPHIMURIUM, Strain/Indicator: TA1538, Metabolic Activation: RAT, LIVER, S-9, AROCLOR 1254, Method: STANDARD PLATE); “inactive; negative” (Test System: E. COLI, Strain/Indicator: WP2, Metabolic Activation: NONE, Method: STANDARD PLATE); “inactive; negative” (Test System: E. COLI, Strain/Indicator: WP2, Metabolic Activation: RAT, LIVER, S-9, AROCLOR 1254, Method: STANDARD PLATE). The mutagenic call (Test System: E. COLI, Strain/Indicator: WP2 UVRA, Metabolic Activation: NONE, Method: STANDARD PLATE) was “inactive; negative” and the mutagenic call (Test System: E. COLI, Strain/Indicator: WP2 UVRA, Metabolic Activation: RAT, LIVER, S-9, AROCLOR 1254, Method: STANDARD PLATE) was “inactive; negative”.
Take `C/C=C(\Cl)C1=CC(=O)[C@]23C[C@H]2C(C)(C)O[C@]3(O)C1=O`: the mutagenic call reads like this: (Test System: AMES SALMONELLA TYPHIMURIUM, Strain/Indicator: TA97, Metabolic Activation: NONE) “inactive; negative”; (Test System: AMES SALMONELLA TYPHIMURIUM, Strain/Indicator: TA98, Metabolic Activation: NONE) “inactive; negative”; (Test System: AMES SALMONELLA TYPHIMURIUM, Strain/Indicator: TA100, Metabolic Activation: NONE) “inactive; negative”; (Test System: AMES SALMONELLA TYPHIMURIUM, Strain/Indicator: TA102, Metabolic Activation: NONE) “active; positive”.
Take `N#Cc1cccc(/C=C/c2ccc([N+](=O)[O-])cc2)c1`: the mutagenic call is “active; positive” (Test System: AMES SALMONELLA TYPHIMURIUM, Strain/Indicator: TA98(NR), Metabolic Activation: NONE, Method: STANDARD PLATE); “active; positive” (Test System: AMES SALMONELLA TYPHIMURIUM, Strain/Indicator: TA98 (NR), Metabolic Activation: S-9, Method: STANDARD PLATE); “active; positive” under setting [1]; “active; positive” (Test System: AMES SALMONELLA TYPHIMURIUM, Strain/Indicator: TA98, Metabolic Activation: S-9, Method: STANDARD PLATE); “inactive; negative” (Test System: AMES SALMONELLA TYPHIMURIUM, Strain/Indicator: TA100 (NR), Metabolic Activation: NONE, Method: STANDARD PLATE); “inactive; negative” (Test System: AMES SALMONELLA TYPHIMURIUM, Strain/Indicator: TA100(NR), Metabolic Activation: S-9, Method: STANDARD PLATE). Besides, the mutagenic call under setting [3] is “active; positive” and the mutagenic call (Test System: AMES SALMONELLA TYPHIMURIUM, Strain/Indicator: TA100, Metabolic Activation: S-9, Method: STANDARD PLATE) was “active; positive”.
Take `CCC(C)c1ccccc1OC(=O)N(C)N=O` (configuration not stated): the mutagenic call (Test System: E. COLI WP2, Strain/Indicator: WP2, Metabolic Activation: NONE, Method: STANDARD PLATE) was “active; positive”.
For the molecule `CCN(COC(C)=O)N=O`, under “Test System: UDS RAT UROTHELIAL CELLS, Strain/Indicator: THY INCORP, Metabolic Activation: NONE”, the mutagenic call was “active; positive”.
`COc1nsc2ccc([N+](=O)[O-])cc12`: the mutagenic call under setting [3] is “active; positive”.
`Cc1ccc(OP(=O)(Oc2ccc(C)cc2C)Oc2ccc(C)cc2C)c(C)c1`: the mutagenic call was “inactive; negative” (Test System: AMES SALMONELLA TYPHIMURIUM, Strain/Indicator: TA98, Metabolic Activation: HAMSTER, LIVER, S-9, AROCLOR 1254 (10%), Method: PREINCUBATION); “inactive; negative” under setting [9]; “inactive; negative” (Test System: AMES SALMONELLA TYPHIMURIUM, Strain/Indicator: TA98, Metabolic Activation: RAT, LIVER, S-9, AROCLOR 1254 (10%), Method: PREINCUBATION); “inactive; negative” (Test System: AMES SALMONELLA TYPHIMURIUM, Strain/Indicator: TA100, Metabolic Activation: HAMSTER, LIVER, S-9, AROCLOR 1254 (10%), Method: PREINCUBATION); “inactive; negative” under setting [10]; “inactive; negative” (Test System: AMES SALMONELLA TYPHIMURIUM, Strain/Indicator: TA100, Metabolic Activation: RAT, LIVER, S-9, AROCLOR 1254 (10%), Method: PREINCUBATION). Besides, the mutagenic call is, setting by setting: (Test System: AMES SALMONELLA TYPHIMURIUM, Strain/Indicator: TA1535, Metabolic Activation: HAMSTER, LIVER, S-9, AROCLOR 1254 (10%), Method: PREINCUBATION) “inactive; negative”; (Test System: AMES SALMONELLA TYPHIMURIUM, Strain/Indicator: TA1535, Metabolic Activation: NONE, Method: PREINCUBATION) “inactive; negative”; (Test System: AMES SALMONELLA TYPHIMURIUM, Strain/Indicator: TA1535, Metabolic Activation: RAT, LIVER, S-9, AROCLOR 1254 (10%), Method: PREINCUBATION) “inactive; negative”; (Test System: AMES SALMONELLA TYPHIMURIUM, Strain/Indicator: TA1537, Metabolic Activation: HAMSTER, LIVER, S-9, AROCLOR 1254 (10%), Method: PREINCUBATION) “inactive; negative”; (Test System: AMES SALMONELLA TYPHIMURIUM, Strain/Indicator: TA1537, Metabolic Activation: NONE, Method: PREINCUBATION) “inactive; negative”; (Test System: AMES SALMONELLA TYPHIMURIUM, Strain/Indicator: TA1537, Metabolic Activation: RAT, LIVER, S-9, AROCLOR 1254 (10%), Method: PREINCUBATION) “inactive; negative”.
Regarding `[N-]=[N+]=NC[C@H]1O[C@H](O)[C@H](O)[C@H](O)[C@@H]1O`, the mutagenic call reads like this: under setting [1], “inactive; negative”; under setting [3], “active; positive”.
As for `O=C(O)/C=C(\CCl)C(Cl)Cl`, the mutagenic call runs as follows: under setting [9], “inactive; negative”; under setting [10], “active; positive”; (Test System: AMES SALMONELLA TYPHIMURIUM, Strain/Indicator: TA104, Metabolic Activation: NONE, Method: PREINCUBATION) “inactive; negative”.
For the molecule `CCS(=O)(=O)n1ncc(Cl)c(Cl)c1=O`, the mutagenic call under setting [1] was “inactive; negative”; the mutagenic call under setting [2] was “inactive; negative”; the mutagenic call under setting [3] is “active; positive”; the mutagenic call under setting [4] is “active; positive”; the mutagenic call under setting [5] is “inactive; negative”; the mutagenic call under setting [6] is “inactive; negative”. Moreover, the mutagenic call reads like this: under setting [7], “inactive; negative”; under setting [8], “inactive; negative”.
In the case of `Oc1ccc(Nc2c3ccccc3nc3ccccc23)cc1`, the mutagenic call under setting [7] is “active; positive”.
